The target in assay [1] is T1, 5-HT2A receptor (Homo sapiens, UniProt P28223). Put plainly: 5-HT2A receptor isotope competition affinity assay. Format: binding. Here is the method:
A radiolabeled ligand (agonist or antagonist) incubated with receptor protein could form a receptor-ligand complex. An added test compound could compete with the isotopically labeled ligand for the receptor binding, eventually forming a relative steady-state equilibrium. The affinity of the test compound for the receptor was indirectly evaluated by measuring the dissociation of the isotopically labeled ligand from the receptor.
A 100x serial gradient dilution of compounds was prepared in DMSO, starting from 1 mM with 4-fold serial dilutions, resulting in 10 concentration points. Using a pipettor, 1 µL of each gradient concentration of the test compound (final concentration starting at 10 µM, 4-fold serial dilutions, 10 concentration points) was transferred to a 96-well assay plate, to each well of which 49 µL of 5-HT2A receptor protein (102 µg/mL, prepared in an assay buffer: 50 mM Tris-HCl, pH 7.4) had been added in advance (final concentration 5 µg/well). This was followed by the addition of 50 µL of isotopically labeled [^3H]-Ketanserin (2 nM, 2× final concentration, prepared in the assay buffer). The plate was sealed and incubated on a shaker at room temperature for 1 hour. The reaction mixture was filtered through a Unifilter-96 GF/C filter plate pre-treated with 0.3% PEI. The filter plate was washed with a precooled (4°C) assay buffer and then dried in an incubator at 50°C. A scintillation liquid was added, and the plate was read using a MicroBeta2 instrument. The percentage inhibition was calculated using the equation: %Inhibition=(CountHigh Signal Control-CountSample)/(CountHigh Signal Control-CountLow Signal Control)*100. A four-parameter logistic fit was used to calculate the IC50 value. High Signal Control: No compound group (the same volume of DMSO substituted). Low Signal Control: Ketanserin group (non-isotopically labeled, 2× final concentration). Table 1: Results of 5-HT2A receptor isotope competition affinity assay, Ki Values

Assay [2] has as its target T1, 5-HT2A receptor. Put plainly: 5-HT2AR calcium flux activation assay. Format: cell-based. More on the design: expressed in transfected cells; host or cells: HEK293. The following applies: for Emax: Max Dose 100000 nM. Here is the method: • 1) For cultured cells (HEK293 cells stably expressing human 5-HT2A receptor), they were first washed twice with pre-warmed DPBS, then an appropriate amount of trypsin was added for digestion at 37°C for 1 minute; an appropriate amount of the culture medium was then added to stop digestion, and 1 mL was taken for counting and vitality determination using Vi-CELL™. • 2) Cells were centrifuged at 1000 rpm for 5 minutes. • 3) The supernatant was gently discarded, being careful not to disturb the cell pellet. • 4) Cells were diluted with the culture medium to 1×10^6 cells/mL (20,000 cells/20 µL) and seeded into 384-well poly-lysine coated cell plates. They were cultured at 37°C under 5% CO2 for 16-20 hours.
• 1) Preparation of 250 mM Probenecid solution: According to the kit instructions, 77 mg of probenecid was added to 1 mL of FLIPR buffer salt solution. Prepared fresh for immediate use. • 2) Preparation of Fluo-4 Direct™ (2×, 8 µM) loading buffer: According to the kit instructions, the required amount of Fluo-4 Direct™ was thawed in advance. 10 mL of FLIPR buffer salt solution and 0.2 mL of 250 mM Probenecid solution were added to each vial. It was vortexed in the dark for >5 minutes. Prepared fresh for immediate use.
• 1) Preparation of control and test compound plates: Compounds were gradient diluted to 10 points using Echo, and 750 nL was transferred to the corresponding compound plate. • 2) 30 µL of assay buffer salt solution was added to the corresponding compound plate, which was then centrifuged at 1000 rpm for 1 minute; • 3) The cell plate prepared the day before was taken from the incubator, and 20 µL of 2× Fluo-4 Direct™ buffer was added to each well, making a total volume of 40 µL. • 4) The plate was incubated in a 5% CO2, 37°C incubator for 50 minutes, then left at room temperature for 10 minutes. • 5) The compound plate, the cell plate, and pipette tips were placed into the instrument; • 6) The FLIPR instrument software was run according to the set program, adding 10 µL of the specified concentrations of test compounds and control compounds to the cell plate, and fluorescence signals were read. After reading, data was exported using the "Max-Min", "Read 1 to 90" method in the software. • 7) Data analysis: Agonist Activation% = (RLU−DMSO)/(HC−DMSO)*100 [formula] • RLU: Relative Light Units, read values 1 to 90; • HC: Average fluorescence signal of the highest concentration point of the agonist; • DMSO: Average fluorescence signal of the DMSO group; • 8) Data was fitted using Prism 5.0.
For agonist: EC50 was fitted using "log(agonist) vs. response -- Variable slope". Table 2: 5-HT2AR Calcium Flux Activation Assay
(Calcium flux is commonly read through the fluorescence of an indicator in the cells.)

[3] abbreviates: competition with [3H]-Ketanserin, 1 hour, room temperature, read-out: 5-HT2A receptor/Ki.
Setting [4] is: HEK293 cells stably expressing human 5-HT2A receptor, FLIPR, Fluo-4, read-out: EC50.
The mark [5] stands for this setting: HEK293 cells stably expressing human 5-HT2A receptor.

SMILES strings stand for the structures. Like-named read-outs stand apart in the source and are kept apart here.

T1 sequence (P28223 whole entry): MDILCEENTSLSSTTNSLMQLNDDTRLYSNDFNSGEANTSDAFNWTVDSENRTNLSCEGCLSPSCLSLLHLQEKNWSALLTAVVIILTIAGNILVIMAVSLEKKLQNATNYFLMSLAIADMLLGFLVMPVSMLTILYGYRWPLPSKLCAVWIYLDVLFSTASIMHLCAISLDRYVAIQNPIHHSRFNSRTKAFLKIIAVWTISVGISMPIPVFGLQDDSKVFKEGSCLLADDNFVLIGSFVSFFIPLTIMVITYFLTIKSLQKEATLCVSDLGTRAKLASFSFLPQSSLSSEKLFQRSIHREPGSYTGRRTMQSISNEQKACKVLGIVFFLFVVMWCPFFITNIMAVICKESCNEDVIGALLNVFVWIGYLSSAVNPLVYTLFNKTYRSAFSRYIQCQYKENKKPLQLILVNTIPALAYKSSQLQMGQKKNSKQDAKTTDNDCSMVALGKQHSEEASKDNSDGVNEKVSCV

What is called EC50 is the midpoint of the concentration-response curve. What is called Emax is the maximal effect, on the per cent scale that the assay sets. With `Oc1cccc2[nH]cc(C3CCN(CCc4coc5ccccc45)C3)c12` (centres unmarked) [Compound 134], the Ki in assay [1] (setting [3]) is less than 100 nM. The EC50 in assay [2] (setting [4]) came to 43.3 nM. Moreover, the Emax in assay [2] (setting [5]) is 68.8%.

As for `Cc1cc(CCN2CCC(c3c[nH]c4cccc(F)c34)CC2)n[nH]1` [reference compound], in assay [2] (setting [4]), the EC50 was greater than 100000 nM. The Emax in assay [2] (setting [5]) is 0.9%.

In turn, `Oc1cccc2[nH]cc(C3CCN(CCCn4ncc(C5CC5)n4)C3)c12` (centres unmarked) [Compound 188, 3-(1-(3-(4-cyclopropyl-2H-1,2,3-triazol-2-yl)propyl)pyrrolidin-3-yl)-1H-indol-4-ol] registered a Ki in assay [1] of less than 100 nM. The EC50 in assay [2] turned out to be 10.7 nM. In addition, the Emax in assay [2] (setting [5]) is 48.5%. On to `Cc1cnn(CCCN2CCC(c3c[nH]c4ccccc34)C2)n1` (centres unmarked) [Compound 126], for which the EC50 in assay [2] (setting [4]) was found to be 27.7 nM. For the same compound, the maximal effect (Emax) in assay [2] (setting [5]) came out at 49.7%. The corresponding values for `Cc1nn(CCCN2CCC(c3c[nH]c4cccc(O)c34)C2)nc1C` (racemic) [Compound 127] are 3.94 nM and 53.4%. As for `Cc1nonc1CCCN1CCC(c2c[nH]c3ccccc23)C1` (centres unmarked) [Compound 54, 3-(1-(3-(4-methyl-1,2,5-oxadiazol-3-yl)propyl)pyrrolidin-3-yl)-1H-indole], in assay [1] (setting [3]), the Ki was less than 100 nM. Further, the EC50 in assay [2] (setting [4]) came to 86.5 nM. For the same compound, in assay [2] (setting [5]), the Emax is 46.7%. The corresponding values for `c1ccc2c(C3CCN(CCCn4nccn4)C3)c[nH]c2c1` (centres unmarked) [Compound 125, 3-(1-(3-(2H-1,2,3-triazol-2-yl)propyl)pyrrolidin-3-yl)-1H-indole] are less than 100 nM, 23.1 nM and 62.9%.

In assay [1], `Oc1cc(F)cc2[nH]cc(C3CCN(CCCn4nccn4)C3)c12` (centres unmarked) [Compound 184, 6-fluoro-3-(1-[3-(2H-1,2,3-triazol-2-yl)propyl]pyrrolidin-3-yl)-1H-indol-4-ol] displayed a Ki of less than 100 nM. In assay [2], the EC50 turned out to be 8.72 nM. For the same compound, in assay [2] (setting [5]), the maximal response (Emax) is 52.4%. Regarding `Oc1cccc2[nH]cc(C3CCN(CCCc4ncsn4)C3)c12` (centres unmarked) [Compound 56], the Ki in assay [1] (setting [3]) was less than 100 nM. Moreover, the EC50 in assay [2] (setting [4]) came to 8.6 nM. In addition, the Emax in assay [2] (setting [5]) amounted to 67.7%. As for `CC(C)c1cnn(CCCN2CCC(c3c[nH]c4cccc(O)c34)C2)n1` (centres unmarked) [Compound 128], in assay [2] (setting [4]), the EC50 was 7.09 nM. Further, the Emax in assay [2] (setting [5]) turned out to be 63.1%.

`Cc1cnn(CCCN2CCC(c3c[nH]c4cccc(O)c34)C2)n1` (centres unmarked) [Compound 187, 3-(1-(3-(4-methyl-2H-1,2,3-triazol-2-yl)propyl)pyrrolidin-3-yl)-1H-indol-4-ol]: the Ki in assay [1] (setting [3]) is less than 100 nM. Also, in assay [2] (setting [4]), the half-maximal effective concentration (EC50) came to 4.17 nM. Further, the Emax in assay [2] (setting [5]) came to 63.7%. `Cn1cc(CCCN2CCC(c3c[nH]c4cccc(O)c34)C2)cn1` (centres unmarked) [Compound 60]: in assay [1] (setting [3]), the Ki is less than 100 nM. Also, the EC50 in assay [2] (setting [4]) worked out at 33.3 nM. Also, the Emax in assay [2] (setting [5]) was 29.9%. The corresponding values for `Cc1nc(C)n(CCCN2CCC(c3c[nH]c4ccccc34)C2)n1` (centres unmarked) [Compound 122, 3-(1-(3-(3,5-dimethyl-1H-1,2,4-triazol-1-yl)propyl)pyrrolidin-3-yl)-1H-indole] are less than 100 nM, 24.8 nM and 38.6%. For `CC(C)c1nnc2n1CCC(CN1CCC(c3c[nH]c4ccccc34)C1)C2` (centres unmarked) [Compound 139, 7-((3-(1H-indol-3-yl)pyrrolidin-1-yl)methyl)-3-isopropyl-5,6,7,8-tetrahydro-[1,2,4]triazolo[4,3-a]pyridine], the Ki in assay [1] (setting [3]) was less than 100 nM.

As to `c1ccc2c(C3CCN(CCc4nnc5ccccn45)C3)c[nH]c2c1` (centres unmarked) [Compound 142, 3-(1-(2-((1,2,4)triazolo(4,3-a)pyridin-3-yl)ethyl)pyrrolidin-3-yl)-1H-indole], in assay [1], the Ki is less than 100 nM. Moreover, in assay [2], the EC50 was 45.9 nM. In addition, in assay [2] (setting [5]), the Emax was found to be 41.9%.

`COc1ccccc1CCCN1CCC(n2ccc3cc(F)ccc32)C1` (centres unmarked) [Compound 7]: the Ki in assay [1] (setting [3]) is less than 100 nM. Still for that read-out and setting: in the case of `CC(C)c1nc(CCCN2CCC(c3n[nH]c4ccccc34)C2)no1` (centres unmarked) [Compound 175, 3-(3-(-3-(1H-indazol-3-yl)pyrrolidin-1-yl)propyl)-5-isopropyl-1,2,4-oxadiazole] it was less than 100 nM; in that of `COc1ccccc1CCCN1CCC(c2c[nH]c3cccc(OC)c23)C1` (centres unmarked) [Compound 9], less than 100 nM; in that of `COc1ccccc1CCCN1C2CCC1C(c1c[nH]c3ccccc13)C2` (centres unmarked) [Compound 16, 3-(7-(3-(2-methoxyphenyl)propyl)-7-azabicyclo[2.2.1]heptan-2-yl)-1H-indole], less than 100 nM. The same measure, in the same setting: the same measure for `Cc1nnc(CCCN2CCC(n3ccc4cc(F)ccc43)C2)n1C(C)C` (centres unmarked) [Compound 103]: less than 100 nM; for `COc1ccccc1CCCN1CCC(c2c[nH]c3ccccc23)C1` (centres unmarked) [Compound 5, 3-(1-(3-(2-methoxyphenyl)propyl)pyrrolidin-3-yl)-1H-indole]: less than 100 nM. The same measure, in the same setting: in the case of `Cn1cc(CCCN2CCC(n3ccc4cc(F)ccc43)C2)cn1` (centres unmarked) [Compound 61] it was less than 100 nM; in that of `Fc1ccc2c(C3CCN(CCCc4nncn4CC(F)(F)F)C3)c[nH]c2c1` (centres unmarked) [Compound 83], less than 100 nM. For `CC(C)n1c(CCCN2CCC(c3c[nH]c4cc(F)ccc34)C2)nnc1C(F)(F)F` (centres unmarked) [Compound 100], in assay [1] (setting [3]), the Ki is less than 100 nM.

Turning to `COc1ncncc1CCCN1CCC(c2c[nH]c3ccccc23)C1` (centres unmarked) [Compound 132, 3-(1-(3-(4-methoxypyrimidin-5-yl)propyl)pyrrolidin-3-yl)-1H-indole], in assay [1] (setting [3]), the Ki was less than 100 nM.

Turning to `Cn1cc(CCCN2CCC(c3n[nH]c4ccccc34)C2)cn1` (centres unmarked) [Compound 69, 3-(1-(3-(1-methyl-1H-pyrazol-4-yl)propyl)pyrrolidin-3-yl)-1H-indazole], the Ki in assay [1] is less than 100 nM. With `c1ccc2c(C3CCN(CCCc4ncsn4)C3)c[nH]c2c1` (centres unmarked) [Compound 55, 3-(1-(3-(1,2,4-thiadiazol-3-yl)propyl)pyrrolidin-3-yl)-1H-indole], the Ki in assay [1] (setting [3]) is less than 100 nM.

For `c1ccc2c(C3CCN(CCCn4nccn4)CC3)c[nH]c2c1` [reference compound], the half-maximal effective concentration (EC50) in assay [2] (setting [4]) was greater than 100000 nM. The Emax in assay [2] (setting [5]) worked out at 25.5%.

As to `Cn1cc(CCCN2CCC(c3c[nH]c4ccccc34)C2)cn1` (centres unmarked) [Compound 57, 3-(1-(3-(1-methyl-1H-pyrazol-4-yl)propyl)pyrrolidin-3-yl)-1H-indole], in assay [1] (setting [3]), the Ki was less than 100 nM. Turning to `COc1ccccc1CCCN1CCC(c2c[nH]c3cccc(O)c23)C1` (centres unmarked) [Compound 2], the Ki in assay [1] (setting [3]) is less than 100 nM. In addition, the 50% effective concentration (EC50) in assay [2] (setting [4]) turned out to be 16.9 nM. In addition, in assay [2] (setting [5]), the maximal response (Emax) came to 51.5%. Turning to `c1ccc2c([C@H]3CCN(CCCc4ncon4)C3)c[nH]c2c1` [Compound 171, (R)-3-(1-[3-(1,2,4-oxadiazol-3-yl)propyl]pyrrolidin-3-yl)-1H-indole], the concentration giving a half-maximal response (EC50) in assay [2] (setting [4]) worked out at 63.5 nM. The maximal effect (Emax) in assay [2] (setting [5]) was found to be 40.2%.
